Results as given in patent publication US20260216164A1, “INDOLE COMPOUND DECOMPOSING IKZF2, AND USE THEREOF” (KOREA RESEARCH INSTITUTE OF CHEMICAL TECHNOLOGY, priority 2023, published 2026).

Key:
Helios (IKZF2) = Helios (IKZF2) (Homo sapiens, UniProt Q96SW2+Q9UKS7); experiment: Screening of Helios protein degraders using Nano-Glo HiBiT cell line (HiBiT-IKZF2); assay type: cell-based; conditions: for remaining activity at 1 µM: compound 1 μM, read-out: HiBiT-IKZF2 Residual amount of Helios (%) 1 μM; for remaining activity at 1 µM / remaining activity at 10 µM: 6 hours, HiBiT-Helios knock-in Jurkat cells; for remaining activity at 10 µM: compound 10 μM, read-out: HiBiT-IKZF2 Residual amount of Helios (%) 10 μM
IKZF2 (Helios) = IKZF2 (Helios) (Homo sapiens, UniProt Q96SW2+Q9UKS7); experiment: Screening of DC50 (nM) and Dmax (%) using WB-IKZF2 cell line (Western blot); assay type: cell-based; design: endogenous in cells; conditions: 6 hours; for DC50: class symbols, read-out: WB-IKZF2 DC 50
Method: Experimental Example 2. Screening of DC50 (nM) and Dmax (%) Using WB-IKZF2 Cell Line
Candidate degraders were serially diluted and treated in cells cultured in complete medium, followed by incubation for 6 hours at 37° C. in a CO2 incubator. After 6 hours, the cells were harvested and lysed in RIPA buffer (150 mM NaCl, 1% Triton X-100, 1% sodium deoxycholate, 0.1% SDS, 50 mM Tris-HCl pH 7.5, and 2 mM EDTA) containing a protease inhibitor cocktail (Roche). The mixture was vortexed every 10 minutes and incubated on ice for 30 minutes, followed by centrifugation at 13,000 rpm for 10 minutes at 4° C. to isolate proteins. The isolated proteins were quantified using the Bradford assay (Bio-Rad, 5000006). Proteins were separated on 8% SDS-polyacrylamide gel, transferred onto nitrocellulose membranes (Amersham, 10600002), and incubated with primary antibodies at 4° C. for 18 hours. The following primary antibodies were used: anti-Helios rabbit monoclonal antibody (Cell Signaling, 42427, 1:3000) and anti-β-actin mouse monoclonal antibody (Santa Cruz, sc-47778, 1:5000). β-actin was used as a loading control. The next day, the membranes were washed with 1×TBST for 30 minutes and incubated with HRP-conjugated secondary antibodies corresponding to the primary antibodies at room temperature for 1 hour. The following secondary antibodies were used: anti-mouse IgG HRP-linked antibody (Sigma, A9044, 1:5000) and anti-rabbit IgG HRP-linked antibody (Cell Signaling, 7074, 1:5000). After washing with 1×TBST for 30 minutes, protein expression was visualized using the Pierce ECL Western blotting substrate (Thermo Fisher, 32106), and images were captured using a chemiluminescence image analysis system (GE Healthcare, AI680). The obtained images were quantified using the ImageJ software.

Chain of IKZF2 (Helios) (Q9UKS7 whole entry): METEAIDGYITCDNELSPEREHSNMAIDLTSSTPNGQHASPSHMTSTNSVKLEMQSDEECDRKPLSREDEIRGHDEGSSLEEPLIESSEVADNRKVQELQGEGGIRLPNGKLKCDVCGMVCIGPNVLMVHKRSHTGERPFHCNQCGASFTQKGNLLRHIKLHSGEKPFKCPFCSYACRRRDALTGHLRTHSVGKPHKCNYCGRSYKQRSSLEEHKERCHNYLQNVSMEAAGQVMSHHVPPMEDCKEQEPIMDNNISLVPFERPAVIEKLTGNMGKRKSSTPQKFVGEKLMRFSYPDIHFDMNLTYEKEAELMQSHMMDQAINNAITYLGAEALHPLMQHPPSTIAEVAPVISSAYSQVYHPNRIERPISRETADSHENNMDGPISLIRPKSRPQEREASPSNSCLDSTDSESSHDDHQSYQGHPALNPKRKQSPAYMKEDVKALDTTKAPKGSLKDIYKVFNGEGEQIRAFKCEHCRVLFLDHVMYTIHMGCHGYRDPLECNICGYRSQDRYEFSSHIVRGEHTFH
Chain of IKZF2 (Helios) (Q96SW2 whole entry): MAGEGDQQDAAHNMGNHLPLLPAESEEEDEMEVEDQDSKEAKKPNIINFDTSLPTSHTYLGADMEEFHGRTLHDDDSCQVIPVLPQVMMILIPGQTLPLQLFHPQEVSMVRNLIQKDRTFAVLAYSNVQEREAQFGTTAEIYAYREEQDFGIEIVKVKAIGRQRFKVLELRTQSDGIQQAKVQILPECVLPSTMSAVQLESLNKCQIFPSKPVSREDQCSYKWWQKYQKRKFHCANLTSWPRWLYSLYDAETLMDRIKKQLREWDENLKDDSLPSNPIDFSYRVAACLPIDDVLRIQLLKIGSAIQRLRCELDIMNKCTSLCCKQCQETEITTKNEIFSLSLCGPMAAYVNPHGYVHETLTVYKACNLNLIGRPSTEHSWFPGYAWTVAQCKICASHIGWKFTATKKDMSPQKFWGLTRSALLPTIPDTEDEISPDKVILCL
Chain of IKZF2 (Helios) (Q16531 whole entry partner): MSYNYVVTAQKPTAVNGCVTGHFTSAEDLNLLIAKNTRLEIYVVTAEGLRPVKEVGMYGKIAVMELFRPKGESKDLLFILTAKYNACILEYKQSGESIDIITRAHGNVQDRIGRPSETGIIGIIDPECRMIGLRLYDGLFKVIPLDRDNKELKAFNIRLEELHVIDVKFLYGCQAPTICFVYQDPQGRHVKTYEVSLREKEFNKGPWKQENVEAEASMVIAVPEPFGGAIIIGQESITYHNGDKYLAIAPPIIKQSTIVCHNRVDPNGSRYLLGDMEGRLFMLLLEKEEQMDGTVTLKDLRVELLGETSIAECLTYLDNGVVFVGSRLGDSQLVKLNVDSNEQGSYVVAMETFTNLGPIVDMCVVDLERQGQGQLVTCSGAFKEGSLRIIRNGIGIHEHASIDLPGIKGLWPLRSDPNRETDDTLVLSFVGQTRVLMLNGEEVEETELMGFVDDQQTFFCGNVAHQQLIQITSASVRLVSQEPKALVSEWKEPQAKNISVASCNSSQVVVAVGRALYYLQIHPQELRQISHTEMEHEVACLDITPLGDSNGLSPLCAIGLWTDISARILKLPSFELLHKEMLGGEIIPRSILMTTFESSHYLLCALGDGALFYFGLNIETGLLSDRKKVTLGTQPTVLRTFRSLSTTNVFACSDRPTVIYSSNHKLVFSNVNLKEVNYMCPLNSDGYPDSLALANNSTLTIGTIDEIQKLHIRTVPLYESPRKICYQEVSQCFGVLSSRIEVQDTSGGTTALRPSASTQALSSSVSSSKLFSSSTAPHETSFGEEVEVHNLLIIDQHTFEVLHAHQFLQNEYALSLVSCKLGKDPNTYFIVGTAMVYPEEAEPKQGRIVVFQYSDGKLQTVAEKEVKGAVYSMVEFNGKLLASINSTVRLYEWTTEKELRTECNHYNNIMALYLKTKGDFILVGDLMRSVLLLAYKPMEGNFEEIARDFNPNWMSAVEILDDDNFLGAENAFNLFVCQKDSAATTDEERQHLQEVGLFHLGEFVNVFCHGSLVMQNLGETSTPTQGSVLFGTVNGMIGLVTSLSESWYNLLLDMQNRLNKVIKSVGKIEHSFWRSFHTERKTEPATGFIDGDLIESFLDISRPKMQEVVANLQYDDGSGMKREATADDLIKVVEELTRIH
Chain of Helios (IKZF2) (Q9UKS7 whole entry): as the sequence (Q9UKS7 whole entry) above
Chain of Helios (IKZF2) (Q96SW2 whole entry): as the sequence (Q96SW2 whole entry) above
Chain of Helios (IKZF2) (Q16531 whole entry partner): as the sequence (Q16531 whole entry partner) above

SMILES	remaining activity at 1 µM (Helios (IKZF2)) [%]	remaining activity at 10 µM (Helios (IKZF2)) [%]	Dmax (IKZF2 (Helios)) [%]	DC50 (IKZF2 (Helios)) [nM]	IKZF2 degradation activity (in words, comment on Table 1) (Helios (IKZF2); as shown in Table 1)
Cc1c(C(=O)N2CCC(c3ccc4c(c3)CN(C3CCC(=O)NC3=O)C4=O)CC2)[nH]c2cc(Cl)c(O)cc12 (stereo not shown) [Compound 101, 3-(5-(1-(6-chloro-5-hydroxy-3-methyl-1H-indole-2-carbonyl)piperidin-4-yl)-1-oxoinsoindolin-2-yl)piperidine-2,6-dione]	15.7	20.7	100	10 to 100	
Cc1c(C(=O)N2CCC(c3ccc4c(c3)CN(C3CCC(=O)NC3=O)C4=O)CC2)[nH]c2cc(C(F)(F)F)ccc12 (stereo not shown) [Compound 48, 3-(5-(1-(3-methyl-6-(trifluoromethyl)-1H-indole-2-carbonyl)piperidin-4-yl)-1-oxoinsoindolin-2-yl)piperidine-2,6-dione]		8.21		10 to 100	
CCNC(=O)Nc1ccc2c(C)c(C(=O)N3CCC(c4ccc5c(c4)CN(C4CCC(=O)NC4=O)C5=O)CC3)[nH]c2c1 (stereo not shown) [Compound 75, 1-(2-(4-(2-(2,6-dioxopiperidin-3-yl)-1-oxoindolin-5-yl)piperidine-1-carbonyl)-3-methyl-1H-indol-6-yl)-3-ethylurea]	29.6	19		100 to 1000	
Cc1cc2c(C)c(C(=O)N3CCC(c4ccc5c(c4)CN(C4CCC(=O)NC4=O)C5=O)CC3)[nH]c2cc1[N+](=O)[O-] (stereo not shown) [Compound 85, 3-(5-(1-(3,5-dimethyl-6-nitro-1H-indole-2-carbonyl)piperidin-4-yl)-1-oxoinsoindolin-2-yl)piperidine-2,6-dione]		11		100 to 1000	
Cc1c(C(=O)N2C3CCC2CC(c2ccc4c(c2)CN(C2CCC(=O)NC2=O)C4=O)C3)[nH]c2cc(Cl)ccc12 (stereo not shown) [Compound 58, 3-(5-(8-(6-chloro-3-methyl-1H-indole-2-carbonyl)-8-azabicyclo[3.2.1]octan-3-yl)-1-oxoinsoindolin-2-yl)piperidine-2,6-dione]		5.2		10 to 100	excellent IKZF2 degradation activity
Cc1c(C(=O)N2CCC(c3ccc4c(c3)CN(C3CCC(=O)NC3=O)C4=O)CC2)[nH]c2cc([N+](=O)[O-])c(Cl)cc12 (stereo not shown) [Compound 84, 3-(5-(1-(5-chloro-3-methyl-6-nitro-1H-indole-2-carbonyl)piperidin-4-yl)-1-oxoinsoindolin-2-yl)piperidine-2,6-dione]		9.7		100 to 1000	

Continued, in another order:

remaining activity at 1 µM (Helios (IKZF2)) [%]	remaining activity at 10 µM (Helios (IKZF2)) [%]	Dmax (IKZF2 (Helios)) [%]	DC50 (IKZF2 (Helios)) [nM]	SMILES	IKZF2 degradation activity (in words, comment on Table 1) (Helios (IKZF2); as shown in Table 1)
	5.1	100	< 10	Cc1c(C(=O)N2CCC(c3ccc4c(c3)CN(C3CCC(=O)NC3=O)C4=O)CC2)[nH]c2cc([N+](=O)[O-])ccc12 (stereo not shown) [Compound 55, 3-(5-(1-(3-methyl-6-nitro-1H-indole-2-carbonyl)piperidin-4-yl)-1-oxoinsoindolin-2-yl)piperidine-2,6-dione]	
14.1		96	< 10	Cc1c(C(=O)N2CCC(c3ccc4c(c3F)CN(C3CCC(=O)NC3=O)C4=O)CC2)[nH]c2cc(Cl)c(F)cc12 (stereo not shown) [Compound 113, 3-(5-(1-(6-chloro-5-fluoro-3-methyl-1H-indole-2-carbonyl)piperidin-4-yl)-4-fluoro-1-oxoinsoindolin-2-yl)piperidine-2,6-dione]	
	6.2	100	< 10	Cc1c(C(=O)N2CCC(c3cc4c(cc3F)C(=O)N(C3CCC(=O)NC3=O)C4)CC2)[nH]c2cc(Cl)ccc12 (stereo not shown) [Compound 90, 3-(5-(1-(6-chloro-3-methyl-1H-indole-2-carbonyl)piperidin-4-yl)-6-fluoro-1-oxoinsoindolin-2-yl)piperidine-2,6-dione]	
